The text below walks through data of PubChem BioAssay AID588667 (The Scripps Research Institute Molecular Screening Center, 2011).

For the assay, the target named is Epidermal growth factor receptor (Homo sapiens) (UniProt P00533). In words: decrease of EGFR abundance in colorectal cells – SW620 cells, chemiluminescent western blot, powder samples, counter-screen for KLF5 inhibitor project, late-stage follow-up (AID 588667). The settings on record: 24 h, at 10 µM; for inhibition: stronger effect = higher value; for signed fold change of EGFR band vs DMSO (negative = fold decrease; more negative = more active): measured here: EGFR band fold change vs DMSO.
Chain of Epidermal growth factor receptor (Homo sapiens) (P00533 whole entry, looked up): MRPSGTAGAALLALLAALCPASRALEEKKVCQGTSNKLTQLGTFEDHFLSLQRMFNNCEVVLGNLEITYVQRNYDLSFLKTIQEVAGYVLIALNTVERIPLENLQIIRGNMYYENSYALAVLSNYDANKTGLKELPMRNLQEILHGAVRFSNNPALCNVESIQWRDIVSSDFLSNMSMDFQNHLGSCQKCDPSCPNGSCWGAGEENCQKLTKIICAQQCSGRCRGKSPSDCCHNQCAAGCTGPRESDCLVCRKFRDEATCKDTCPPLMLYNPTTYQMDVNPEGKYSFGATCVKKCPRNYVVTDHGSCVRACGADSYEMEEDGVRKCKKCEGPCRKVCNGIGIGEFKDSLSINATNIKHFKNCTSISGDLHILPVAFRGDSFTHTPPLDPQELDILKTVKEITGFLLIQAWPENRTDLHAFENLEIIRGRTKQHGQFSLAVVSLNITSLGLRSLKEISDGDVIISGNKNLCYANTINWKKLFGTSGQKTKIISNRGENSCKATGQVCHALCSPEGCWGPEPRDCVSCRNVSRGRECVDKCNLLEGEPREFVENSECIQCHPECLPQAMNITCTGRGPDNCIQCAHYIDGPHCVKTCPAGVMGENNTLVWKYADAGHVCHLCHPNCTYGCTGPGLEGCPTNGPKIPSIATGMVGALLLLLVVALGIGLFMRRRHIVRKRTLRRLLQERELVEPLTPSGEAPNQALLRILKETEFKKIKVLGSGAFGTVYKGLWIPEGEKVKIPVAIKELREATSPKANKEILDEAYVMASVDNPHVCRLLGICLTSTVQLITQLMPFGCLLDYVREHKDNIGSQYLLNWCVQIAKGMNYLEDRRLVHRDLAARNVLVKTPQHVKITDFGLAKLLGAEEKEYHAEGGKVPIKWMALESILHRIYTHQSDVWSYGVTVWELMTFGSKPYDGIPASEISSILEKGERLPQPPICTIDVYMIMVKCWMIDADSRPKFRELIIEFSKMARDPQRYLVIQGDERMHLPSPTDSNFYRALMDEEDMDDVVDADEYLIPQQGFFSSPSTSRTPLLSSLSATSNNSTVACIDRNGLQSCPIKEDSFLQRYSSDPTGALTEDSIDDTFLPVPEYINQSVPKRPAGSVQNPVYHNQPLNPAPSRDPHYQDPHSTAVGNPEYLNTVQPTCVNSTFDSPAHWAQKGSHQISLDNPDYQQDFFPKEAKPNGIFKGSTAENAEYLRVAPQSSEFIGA

By inhibition is commonly meant the share of the control response that was lost under treatment. Take `CN(C(=O)CNC(=O)/C=C/c1cccc(Cl)c1)C1CCS(=O)(=O)C1` (stereo unspecified): the inhibition is 31.7% and the signed fold change of EGFR band vs DMSO (negative = fold decrease; more negative = more active) is -1.46.

For `CN(C(=O)CNC(=O)/C=C/c1cccc(Cl)c1)C1CCS(=O)(=O)CC1`, the inhibition was 87.1% and the signed fold change of EGFR band vs DMSO (negative = fold decrease; more negative = more active) is -7.78.

`CN(C(=O)COC(=O)/C=C/c1cccc([N+](=O)[O-])c1)C1CCS(=O)(=O)C1` (stereo unspecified): the inhibition was 53.3% and the signed fold change of EGFR band vs DMSO (negative = fold decrease; more negative = more active) was -2.14.
